This note sets out measurements from patent US12662480B2, “Microbiocidal derivatives” (SYNGENTA CROP PROTECTION AG, priority 2020, dated 2026).

Molecules are shown by their SMILES.

Assay [1] has as its system Puccinia recondita f. sp. tritici. The experiment in a line: Puccinia recondita f. sp. tritici / wheat / leaf disc curative (brown rust). The following applies: foliar, 24 h, wheat leaf segments cv. Kanzler, compound applied 1 day after inoculation, compared to untreated control. It is filed as in vivo. On the procedure: Example B9: Puccinia recondita f. Sp. Tritici/Wheat/Leaf Disc Curative (Brown Rust) Wheat leaf segments cv. Kanzler are placed on agar in multiwell plates (24-well format). The leaf segments are inoculated with a spore suspension of the fungus. Plates are stored in darkness at 19° C. and 75% rh. The formulated test compound diluted in water is applied 1 day after inoculation. The leaf segments are incubated at 19° C. and 75% rh under a light regime of 12 h light/12 h darkness in a climate cabinet and the activity of a compound is assessed as percent disease control compared to untreated when an appropriate level of disease damage appears in untreated check leaf segments (6-8 days after application). […] […]-9, and P-11.

The test system is the same in assay [2]. Description: Puccinia recondita f. sp. tritici / wheat / leaf disc preventative (brown rust). It counts as in vivo. Particulars: foliar, wheat leaf segments cv. Kanzler, inoculated 1 day after application, compared to untreated control. On the procedure: Example B10: Puccinia recondita f. Sp. Tritici/Wheat/Leaf Disc Preventative (Brown Rust) Wheat leaf segments cv. Kanzler are placed on agar in multiwell plates (24-well format) and sprayed with the formulated test compound diluted in water. The leaf disks are inoculated with a spore suspension of the fungus 1 day after application. The inoculated leaf segments are incubated at 19° C. and 75% rh under a light regime of 12 h light/12 h darkness in a climate cabinet and the activity of a compound is assessed as percent disease control compared to untreated when an appropriate level of disease damage appears in untreated check leaf segments (7-9 days after application). […] […]-10, and P-11.

Turning to `Cc1sc(N(C(=O)C2CCOC2)c2cc(F)nc(F)c2)nc1C(=O)N(C(=O)C1CCOC1)C1CCC1(C)C` (stereo not drawn) [Compound P-1, 2-[(2,6-difluoro-4-pyridyl)-(tetrahydrofuran-3-carbonyl)amino]-N-(2,2-dimethylcyclobutyl)-5-methyl-N-(tetrahydrofuran-3-carbonyl)thiazole-4-carboxamide], the pest or weed control at 200 ppm in assay [1] and in assay [2] was ≥ 80% each time.
As for `Cc1sc(N(C(=O)C2CCCO2)c2cc(F)nc(F)c2)nc1C(=O)NC1CCC1(C)C` (stereo not drawn) [Compound P-2, 2-[(2,6-difluoro-4-pyridyl)-(tetrahydrofuran-2-carbonyl)amino]-N-(2,2-dimethylcyclobutyl)-5-methyl-thiazole-4-carboxamide], the pest or weed control at 200 ppm in assay [1] and in assay [2] was ≥ 80% throughout.
`Cc1sc(N(C(=O)C2CCOC2)c2cc(F)nc(F)c2)nc1C(=O)NC1CCC1(C)C` (stereo not drawn) [Compound P-3, 2-[(2,6-difluoro-4-pyridyl)-(tetrahydrofuran-3-carbonyl)amino]-N-(2,2-dimethylcyclobutyl)-5-methyl-thiazole-4-carboxamide]: the pest or weed control at 200 ppm in assay [1] and in assay [2] was ≥ 80% each time.
As for `Cc1sc(N(C(=O)C2COC2)c2cc(F)nc(F)c2)nc1C(=O)NC1CCC1(C)C` (stereo not drawn) [Compound P-4, 2-[(2,6-difluoro-4-pyridyl)-(oxetane-3-carbonyl)amino]-N-(2,2-dimethylcyclobutyl)-5-methyl-thiazole-4-carboxamide], the pest or weed control at 200 ppm in assay [1] and in assay [2] was ≥ 80% each time.
Consider `Cc1sc(N(C(=O)C(C)OC(C)(C)C)c2cc(F)nc(F)c2)nc1C(=O)NC1CCC1(C)C` (stereo not drawn) [Compound P-5, 2-[2-tert-butoxypropanoyl-(2,6-difluoro-4-pyridyl)amino]-N-(2,2-dimethylcyclobutyl)-5-methyl-thiazole-4-carboxamide], for which the pest or weed control at 200 ppm in assay [1] and in assay [2] was ≥ 80% throughout.
Take `Cc1sc(N(C(=O)C(C)OC(C)C)c2cc(F)nc(F)c2)nc1C(=O)NC1CCC1(C)C` (stereo not drawn) [Compound P-6, 2-[(2,6-difluoro-4-pyridyl)-(2-isopropoxypropanoyl)amino]-N-(2,2-dimethylcyclobutyl)-5-methyl-thiazole-4-carboxamide]: the pest or weed control at 200 ppm in assay [1] and in assay [2] was ≥ 80% in each case.
On to `Cc1sc(N(C(=O)COC(C)(C)C)c2cc(F)nc(F)c2)nc1C(=O)NC1CCC1(C)C` (stereo not drawn) [Compound P-7, 2-[(2-tert-butoxyacetyl)-(2,6-difluoro-4-pyridyl)amino]-N-(2,2-dimethylcyclobutyl)-5-methyl-thiazole-4-carboxamide], for which the pest or weed control at 200 ppm in assay [2] is ≥ 80%.
For the compound `COC(C)C(=O)N(c1cc(F)nc(F)c1)c1nc(C(=O)NC2CCC2(C)C)c(C)s1` (stereo not drawn) [Compound P-9, 2-[(2,6-difluoro-4-pyridyl)-(2-methoxypropanoyl)amino]-N-(2,2-dimethylcyclobutyl)-5-methyl-thiazole-4-carboxamide], the pest or weed control at 200 ppm in assay [1] and in assay [2] was ≥ 80% each time.
Take `Cc1sc(N(C(=O)C(C)S(C)(=O)=O)c2cc(F)nc(F)c2)nc1C(=O)NC1CCC1(C)C` (stereo not drawn) [Compound P-10, 2-[(2,6-difluoro-4-pyridyl)-(2-methylsulfonylpropanoyl)amino]-N-(2,2-dimethylcyclobutyl)-5-methyl-thiazole-4-carboxamide]: in assay [2], the pest or weed control at 200 ppm was ≥ 80%.
On to `Cc1sc(N(C(=O)C2CCOCC2)c2cc(F)nc(F)c2)nc1C(=O)NC1CCC1(C)C` (stereo not drawn) [Compound P-11, 2-[(2,6-difluoro-4-pyridyl)-(tetrahydropyran-4-carbonyl)amino]-N-(2,2-dimethylcyclobutyl)-5-methyl-thiazole-4-carboxamide], for which the pest or weed control at 200 ppm in assay [1] and in assay [2] was ≥ 80% in each case.

The pest or weed control is how far the test organism was held down.
